Measured values as given in patent publication US7153849B2, “Antidepressant arylpiperazine derivatives of hetrocycle-fused benzodioxans” (Wyeth, priority 2002, dated 2006).
pIC50, pKi: −log10 of the molar value.

Columns and labels:
serotonin transporter = target: T1, serotonin transporter (Rattus norvegicus, UniProt P31652); assay: 3H-paroxetine displacement from rat frontal cortical membranes (serotonin transporter affinity); assay type: binding; details: 3H-paroxetine, male rat frontal cortical membranes; for pKi: read-out: 5-HT Transporter Affinity Ki
T1 construct: displace ^3H-paroxetine from male rat frontal cortical membranes; from tissue; host or cells: male rat frontal cortical membranes
T1 sequence (P31652 whole entry): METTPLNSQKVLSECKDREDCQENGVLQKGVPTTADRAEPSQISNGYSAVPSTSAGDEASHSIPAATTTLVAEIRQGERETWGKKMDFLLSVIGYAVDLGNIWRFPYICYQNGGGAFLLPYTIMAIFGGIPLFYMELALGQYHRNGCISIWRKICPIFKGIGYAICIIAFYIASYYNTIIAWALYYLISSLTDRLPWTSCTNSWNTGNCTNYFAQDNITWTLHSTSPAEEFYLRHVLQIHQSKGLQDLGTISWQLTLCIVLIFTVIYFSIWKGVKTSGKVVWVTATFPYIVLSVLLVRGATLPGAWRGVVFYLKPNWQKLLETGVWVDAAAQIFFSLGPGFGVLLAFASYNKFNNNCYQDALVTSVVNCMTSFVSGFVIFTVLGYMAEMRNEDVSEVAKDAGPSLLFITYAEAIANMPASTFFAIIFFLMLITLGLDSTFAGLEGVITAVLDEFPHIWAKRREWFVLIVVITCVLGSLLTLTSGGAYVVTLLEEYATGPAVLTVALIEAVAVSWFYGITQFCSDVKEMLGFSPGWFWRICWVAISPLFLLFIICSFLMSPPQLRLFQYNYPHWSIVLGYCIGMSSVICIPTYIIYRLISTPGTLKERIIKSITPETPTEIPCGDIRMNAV

[1] = target: T2, cloned human 5HT1A receptors (Homo sapiens, UniProt P08908); assay: 35S-GTPγS binding assay, 5HT1A antagonist activity; assay type: biochemical; details: for 5HT1A Function Imax: maximum inhibitory effect, vs 8-OH-DPAT, unit assumed; for pIC50: reversal of 8-OH-DPAT (antagonist), read-out: 5HT1A Function IC50
T2 construct: expressed in transfected cells
T2 sequence (P08908 1-422): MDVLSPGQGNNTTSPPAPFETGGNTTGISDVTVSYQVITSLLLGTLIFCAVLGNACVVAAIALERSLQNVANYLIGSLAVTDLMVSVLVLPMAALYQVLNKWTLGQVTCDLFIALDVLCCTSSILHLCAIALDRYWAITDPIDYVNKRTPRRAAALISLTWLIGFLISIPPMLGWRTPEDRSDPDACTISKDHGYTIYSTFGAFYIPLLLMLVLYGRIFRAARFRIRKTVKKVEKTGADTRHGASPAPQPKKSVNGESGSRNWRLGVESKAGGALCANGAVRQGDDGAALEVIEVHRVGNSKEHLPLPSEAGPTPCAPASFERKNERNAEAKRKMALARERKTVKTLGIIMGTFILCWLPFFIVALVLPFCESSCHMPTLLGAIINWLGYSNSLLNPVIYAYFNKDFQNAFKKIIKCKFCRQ
Procedure: Antagonist activity at 5HT1A receptors was established by using a ^35S-GTPγS binding assay similar to that used by Lazareno and Birdsall (Br. J. Pharmacol. 109:1120, 1993), in which the test compound's ability to affect the binding of ^35S-GTPγS to membranes containing cloned human 5HT1A receptors was determined. Agonists produce an increase in binding whereas antagonists produce no increase but rather reverse the effects of the standard agonist 8-OH-DPAT. The test compound's maximum inhibitory effect is represented as the Imax, while its potency is defined by the IC50.

human 5HT1A receptors = target: T3, human 5HT1A receptors (Homo sapiens, UniProt P08908); assay: [3H] 8-OH-DPAT displacement from 5HT1A receptor in stably transfected CHO cells; assay type: binding; details: CHO cells with human 5HT1A; for pKi: read-out: 5HT1A Receptor Affinity Ki
T3 construct: expressed in transfected cells; host or cells: CHO cells
T3 sequence (P08908 1-422): T2 sequence (P08908 1-422)
Excerpt: High affinity for the serotonin 5HT1A receptor was established by testing the claimed compound's ability to displace [^3H] 8-OH-DPAT (dipropylamino-tetralin) from the 5HT1A serotonin receptor following a modification of the procedure of Hall et al., J. Neurochem. 44, 1685 (1985) which utilizes CHO cells stably transfected with human 5HT1A receptors.

pKi (serotonin transporter) | 5HT1A Function Imax [1] [%] | pIC50 [1] | melting point [°C] | pKi (human 5HT1A receptors) | 5-HT Transporter Affinity, % @ 1 μM (serotonin transporter) [% @ 1 μM] | 5HT1A Receptor Affinity, % @ 1 μM (human 5HT1A receptors) | SMILES
7.80 | 100 | 5.34 | 110 to 112 | 7.80 |  |  | Cc1ccc2c3c(ccc2n1)OC[C@H](CN1CCN(c2cccc(Cl)c2)CC1)O3 [Example 1, (2S)-2-{[4-(3-chlorophenyl)piperazin-1-yl]methyl}-8-methyl-2,3-dihydro[1,4]dioxino[2,3-f]quinoline]
 | 87 | 6.00 | 44 to 47 |  | 34 | 95% @ 1 μM | COc1ccccc1N1CCN(C[C@H]2COc3ccc4nc(C)ccc4c3O2)CC1 [Example 4, (2S)-2-{[4-(2-methoxyphenyl)piperazin-1-yl]methyl}-8-methyl-2,3-dihydro[1,4]dioxino[2,3-f]quinoline]
7.45 | 84 | 5.77 | 90 to 91 |  |  | 80% @ 1 μM | COc1cccc(N2CCN(C[C@H]3COc4ccc5nc(C)ccc5c4O3)CC2)c1 [Example 5, (2S)-2-{[4-(3-methoxyphenyl)piperazin-1-yl]methyl}-8-methyl-2,3-dihydro[1,4]dioxino[2,3-f]quinoline]
 | 37 | 5.40 | 164 to 165 |  | 0 | 81% A1 μM | COc1ccc(N2CCN(C[C@H]3COc4ccc5nc(C)ccc5c4O3)CC2)cc1 [Example 6, (2S)-2-{[4-(4-methoxyphenyl)piperazin-1-yl]methyl}-8-methyl-2,3-dihydro[1,4]dioxino[2,3-f]quinoline]
7.67 | 100 | 5.51 | 123 to 124 | 7.50 |  |  | Cc1ccc2c3c(ccc2n1)OC[C@H](CN1CCN(c2cccc(C(F)(F)F)c2)CC1)O3 [Example 8, (2S)-8-methyl-2-[4-(3-trifluoromethyl-phenyl)piperazin-1-ylmethyl]-2,3-dihydro[1,4]dioxine[2,3-f]quinoline]
7.05 | 98 | 6.39 | 112 to 113 | 7.08 |  |  | Cc1ccc2c3c(ccc2n1)OC[C@H](CN1CCN(c2cccc(C)c2C)CC1)O3 [Example 10, (2S)-2-{[4-(2,3-dimethylphenyl)piperazin-1-yl]methyl}-8-methyl-2,3-dihydro[1,4]dioxino[2,3-f]quinoline]
7.07 | 84 | 6.46 | 118 to 120 | 7.74 |  |  | Cc1ccc2c3c(ccc2n1)OC[C@H](CN1CCN(c2ccc(C)c(C)c2)CC1)O3 [Example 11, (2S)-2-{[4-(3,4-dimethylphenyl)piperazin-1-yl]methyl}-8-methyl-2,3-dihydro[1,4]dioxino[2,3-f]quinoline]
6.91 | 90 | 5.52 | 141 to 144 | 6.78 |  |  | Cc1ccc2c3c(ccc2n1)OC[C@H](CN1CCN(c2ccc4ccccc4n2)C[C@@H]1C)O3 [Example 19, (2S)-8-methyl-2-{[(2S)-2-methyl-4-quinolin-2-ylpiperazin-1-yl]methyl}-2,3-dihydro[1,4]dioxino[2,3-f]quinoline]
7.48 | 83.5 | 6.06 | 78 to 82 | 8.26 |  |  | Cc1ccc2c3c(ccc2n1)OC[C@H](CN1CCN(c2ccc4ccccc4n2)C[C@H]1C)O3 [Example 21, (2S)-8-methyl-2-{[(2R)-2-methyl-4-quinolin-2-ylpiperazin-1-yl]methyl}-2,3-dihydro[1,4]dioxino[2,3-f]quinoline]

SMILES | pKi (serotonin transporter) | 5HT1A Function Imax [1] [%] | pIC50 [1] | melting point [°C] | pKi (human 5HT1A receptors) | 5-HT Transporter Affinity, % @ 1 μM (serotonin transporter) [% @ 1 μM] | 5HT1A Receptor Affinity, % @ 1 μM (human 5HT1A receptors)
Cc1ccc2c3c(ccc2n1)OC[C@H](CN1CCN(c2ccc4cc(Br)ccc4n2)CC1)O3 [Example 27, (2S)-2-{[4-(6-Bromoquinolin-2-yl)piperazin-1-yl]methyl}-8-methyl-2,3-dihydro[1,4]dioxino[2,3-f]quinoline] | 7.00 | 82 | 5.62 | 153 to 154 | 7.77 |  | 
Cc1ccc2c3c(ccc2n1)OC[C@H](CN1CCCN(c2ccc4cc(C#N)ccc4n2)CC1)O3 [Example 34, 2-(4-{[(2S)-8-Methyl-2,3-dihydro[1,4]dioxino[2,3-f]quinolin-2-yl]methyl}-1,4-diazepan-1-yl)quinoline-6-carbonitrile] | 8.96 |  |  | 80 to 85 | 8.69 |  | 
